In patent publication US8710021B2, “Inhibition of HRP-3 using modified oligonucleotides” (Bionucleon S.r.l., priority 2008, dated 2014):

Key:
HUVEC [1] = experiment: Proliferation of endothelial primary cells (HUVEC); format: cell-based, human
Protocol: (§1) While no effects on the proliferation on BAEC and HUVEC cells were found, HRP-3 is able to induce HUVEC sprouting after 24 hours of stimulation. As shown in FIGS. 3 and 4 the HRP-3 can induce sprouting in HUVEC cells in a dose dependent manner. In FIG. 4 we have shown the negative control and the positive control with VEGF at 60 ng/ml. […] To be sure of ours results, experiments have been made in blind too.

NIH 3T3 fibroblasts = experiment: 3T3 migration assay in presence of increasing amounts of HRP-3; format: cell-based, mouse; conditions: 30 ng/mL HRP-3, 24 h
Protocol: (§2) In analogy with the reported HDGF activity on NIH 3T3 fibroblast, we decided to test the HRP-3 activity on these cells to develop a test able to report any interfering activity by a ligand able to bind the PWWP domain. Migration and proliferation assay of 3T3 cells in presence of increasing amounts of the protein were performed. These assays allow the definition of a strong anti-migratory effect of the HRP-3 protein, which at 30 ng/mL is able to prevent 50% of the 3T3 migration induced at 24 h by 5% FBS. This test was validated and is currently well reproducible, FIG. 2.

HUVEC [2] = experiment: HUVEC migration assay in presence of increasing amounts of HRP-3; format: cell-based, human; conditions: 100 ng/ml HRP-3, 5 and 16 h
Protocol: Migration assay of HUVEC in presence of increasing amounts of the protein was performed (FIG. 9). These assay allows the definition of a anti-migratory effect of the protein on human endothelial cells in a dose-dependent manner, which at 100 ng/ml is able to prevent about 80% of the migration induced at 5 and 16 h by 5% FBS.

BAEC = experiment: Proliferation of endothelial primary cells (BAEC); format: cell-based
Protocol: as §1

HUVEC [3] = experiment: Tube formation assay in Matrigel; format: cell-based, human; conditions: after 24 hours, preliminary result
3T3 cells [4] = experiment: 3T3 proliferation assay; format: cell-based, mouse
Protocol: as §2

HUVEC cells [5] = experiment: HUVEC sprouting test; format: cell-based, human; conditions: 24 hours of stimulation
Protocol: as §1
Furthermore to confirm VEGF-independent angiogenic activity we performed another sprouting test with Avastin, anti-VEGF antibody in presence of VEGF and our protein.

[6] = test system: SH-SY5 neuroblastoma cells; experiment: Proliferation assay of SH-SY5 cells; format: cell-based, human; conditions: 100 ng/mL HRP-3, 24 and 48 h
Protocol: Angiogenesis plays a key role during neural differentiation, exerting a trophic activity on both neurons and glia. A variety of angiogenic factors have been identified so far to play an important role in the induction of angiogenesis in NBs, including vascular endothelial growth factor (VEGF). Proliferation assay of SH-SY5 and NCS-34 cells in presence of increasing amounts of the protein were performed. These assays allow the definition of a anti-proliferatory effect of the protein only on SHSY, which at 100 ng/mL is able to prevent 25% of the SH-SY5 proliferation induced at 24 and 48 h by 5% FBS.

HUVEC cells [7] = experiment: mRNA expression in HUVEC by Real Time PCR; format: cell-based, human; conditions: HUVEC stimulated with HRP-3
From the text: To understand the molecular basis of this stimulation, we studied mRNA expression of HRP-3 in HUVEC cell line by Real Time PCR. […] To understand if VEGF or VEGFR-2 was involved with the HRP-3 induced mechanism, we stimulated HUVEC cells with our HRP-3 and investigated mRNA levels of VEGF, VEGFR-2, HRP-3 and HDGF. The expression of those genes is not changed by HRP-3, FIGS. 5 and 6.

3T3 cells [8] = experiment: 3T3 anchorage independent growth; format: cell-based, mouse
HRP-3 [9] = biological target: T1, HRP-3 (Homo sapiens, UniProt Q9Y3E1); experiment: 3T3 migration in vitro assay: prevention of HRP-3 function by DNA duplexes; format: cell-based, mouse
T1 construct: The HRP-3 coding region was cloned into the pET30 vector using EcoRI and NdeI as restriction sites; made in house; host or cells: E. coli BL21
Protocol: All the four DNA duplexes were tested in our 3T3 migration in vitro assay to see if they were able to prevent HRP-3 function by binding its PWWP domain (FIG. 13). […] The third column on the left is the negative control.

HRP-3 [10] = biological target: T1, HRP-3; experiment: HUVEC migration assay with Duplex 1 and HRP-3; format: cell-based; conditions: 50 nM; data not shown
GI-LI-N cells = conditions: MTT, 48 h
[11] = test system: GI-LI-N neuroblastoma xenograft; experiment: Orthotopic neuroblastoma (GI-LI-N) xenograft survival in nude mice; format: in vivo; conditions: VCR 1 mg/kg i.v. once a week for 5 weeks
Protocol: Mice were housed under specific pathogen-free conditions. The in vivo experiment was performed using five week old female athymic (Nude-nu) mice. Mice were anaesthetized with a mixture of xylazine (10 mg/kg) and ketamine (90 mg/kg) (Imalgene 1000, Merial Italia S.p.A., Milan, Italy), subjected to laparatomy, and orthotopically injected with the neuroblastoma (NB) cell line, GI-LI-N (1.5×10^6 cells in 10 μL of saline solution/mouse), in the capsule of the left adrenal gland, as previously reported (Pastorino F. et al., Cancer Res 63, 2003; Pastorino F. et al., Clin Cancer Res 2008). No mortality was observed following tumour cells implantation. NB tumours were allowed to grow from the injected cells for 22 days, then animals were randomly divided in 3 groups. One group was treated i.v., once a week for 5 weeks, with 1 mg/kg of vincristine (VCR, 5 administration in total). A second group of animals was treated with a combination of VCR (i.v. injection of 1 mg/kg, once a week for 5 weeks, 5 administration in total) and BN210 (i.p. injection of 7 mg/kg, 5 days/week, 20 administrations in total). Negative control mice were treated with HEPES-buffered saline. The significance of the differences between experimental groups (n=8 mice/group) in the survival experiments was determined by Kaplan-Meier curves by the use of Chi square log-rank test. […]

T1 sequence (Q9Y3E1 whole entry): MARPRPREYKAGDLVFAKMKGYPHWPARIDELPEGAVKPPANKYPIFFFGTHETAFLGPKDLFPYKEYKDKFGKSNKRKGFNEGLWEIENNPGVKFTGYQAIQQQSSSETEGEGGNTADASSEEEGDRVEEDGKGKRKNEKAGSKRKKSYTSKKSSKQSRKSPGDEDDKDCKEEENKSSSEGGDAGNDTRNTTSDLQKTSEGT

Compound: HRP-3: recombinant HDGF Related Protein 3 with PWWP domain, cDNA from human cells, produced in E. Coli
- effect on proliferation of HUVEC (HUVEC [1]): no effects
- prevention of 3T3 migration induced by 5% FBS (NIH 3T3 fibroblasts): 50%
- prevention of HUVEC migration induced by 5% FBS (HUVEC [2]): about 80%
- effect on proliferation of BAEC (BAEC): no effects
- vessel-like network of HUVEC in tube formation assay (HUVEC [3]): able to maintain vessel-like network of HUVEC
- concentration that blocks 3T3 proliferation (3T3 cells [4]): 0.1 ng/mL
- concentration stimulating sprouting on HUVEC cells (HUVEC cells [5]): above 100 ng/ml
- prevention of SH-SY5 proliferation induced by 5% FBS [6]: 25%
- mRNA levels of VEGF, VEGFR-2, HRP-3 and HDGF after HRP-3 stimulation (HUVEC cells [7]): not changed
- concentration that blocks 3T3 anchorage independent growth (3T3 cells [8]): 0.1 ng/mL

Compound: Duplex 1: short (15 bp) duplex DNA, the duplex of Lukasik et al., designed to target HRP3 (FIG. 12) (chain 1 TACAACACCCACAAA; chain 2 TTTGTGGGTGTTGTA; chain 1: DNA, backbone and methylation of C not given here; chain 2: DNA, backbone not given here) [reference compound]
- activity in abolishing the anti-migratory effect of HRP-3 on 3T3 cells (HRP-3 [9]): able to abolish the protein effect of HRP-3
- migration of 3T3 cells in presence of HRP-3 and duplex (HRP-3 [9]; 250 nM duplex with HRP-3): comparable with the control with FBS
- influence of the duplex alone on 3T3 migration compared to control with FBS (HRP-3 [9]; 1000 nM, without HRP-3): does not have any influence on the migration
- reversal of anti-migratory activity of HRP-3 on HUVEC (HRP-3 [10]): restore totally

Compound: CC[C@]1(O)C[C@H]2CN(CCc3c([nH]c4ccccc34)[C@@](C(=O)OC)(c3cc4c(cc3OC)N(C=O)[C@H]3[C@@](O)(C(=O)OC)[C@H](OC(C)=O)[C@]5(CC)C=CCN6CC[C@]43[C@@H]65)C2)C1 [vincristine, reference compound]
- concentration inhibiting proliferation of GI-LI-N cells (GI-LI-N cells): 2.5 to 5 nM
- life span compared to negative control mice [11]: did not show any increase of their life span
